Assay results reported in patent US20250296916A1, “BICYCLIC PIPERAZINONES AND THERAPEUTIC USES THEREOF” (Cytokinetics, Inc., priority 2022, published 2025).

Tests used:
[1] = system: rabbit skeletal myofibrils (approximately 90% fast fibers); assay: Activation of fast skeletal myofibrils (PUMA coupled-enzyme ATPase assay); format: biochemical; conditions: concentration at which the compound increased the enzymatic activity by 40%; calcium at pCa25; PM12 buffer pH 6.8
Summary of the method: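 Rabbit psoas myofibrils (Triton-washed, ~90% fast fibers) at calcium giving 25% of maximal ATPase rate (pCa25). ADP regenerated via pyruvate kinase/lactate dehydrogenase coupling, NADH oxidation read as absorbance at 340 nm. Buffer 12 mM PIPES, 2 mM MgCl2, 1 mM DTT, pH 6.8.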

[2] = system: ankle plantarflexor muscle contractile force; assay: Rat isometric ankle plantarflexor muscle force; format: in vivo, Sprague Dawley rats; conditions: estimated concentration at which muscle force is 50% of pre-dose maximum tension, 30 Hz stimulation, continuous intravenous infusion over sixty minutes, female rats
From the text: Female Sprague Dawley rats were placed under a stable anesthesic plane with inhaled isoflurane (1-5%). One incision was made on the mid-thigh region of the right leg to expose the sciatic nerve. To prevent co-contraction of the ankle dorsiflexors, an additional incision was made lateral to the patella to isolate and sever the peroneal nerve. Rats were then placed on a temperature-maintained in situ muscle analysis rig (Aurora Scientific, Model 806C). The knee was immobilized in a clamp between two sharpened screws and the foot was taped to a footplate attached to a force transducer (Aurora Scientific, Ontario, Canada). Stainless steel needle electrodes (0.10 mm) were hooked around the exposed sciatic nerve. Isometric ankle plantarflexor muscle contractile force was assessed with the ankle joint at 90° flexion. A 30 Hz electrical stimulation (under supramaximal voltage conditions) was applied to the nerve and the resulting muscle force was recorded via a servomotor. A pre-dose 30 Hz force response was established as the baseline force. A pre-dose 150 Hz force response was established as the maximum isometric force. Compounds were formulated in 50% polyethylene glycol (PEG): 16% Cavitron: 10% dimethylacetamide (DMA) and administered by continuous intravenous infusion over a sixty minute period. The muscle force response to compound was measured every two minutes over the dosing period. Data were reported as an estimated EC50 value, which is the concentration at which muscle force is 50% of the pre-dose maximum tension. In Table 4, “Example Compound” refers to the compound labeled with the same number in Table 2.

SMILES | AC1.4 [1] [µM] | EC50 [2] [µM]
CCC[C@H]1C(=O)Nc2ccccc2N1C(=O)c1cnn(C)c1 [Compound 13, (S)-4-(1-methyl-1H-pyrazole-4-carbonyl)-3-propyl-3,4-dihydroquinoxalin-2(1H)-one] | 0.13 | 15.7
CC(C)[C@H]1C(=O)Nc2cnccc2N1C(=O)c1cnn(C)c1 [Compound 88, (S)-2-isopropyl-1-(1-methyl-1H-pyrazole-4-carbonyl)-1,4-dihydropyrido[3,4-b]pyrazin-3(2H)-one] | 0.85 | 20.1
CC[C@H](C)[C@H]1C(=O)Nc2cnccc2N1C(=O)c1cnn(C)c1 [Compound 89, (S)-2-((S)-sec-butyl)-1-(1-methyl-1H-pyrazole-4-carbonyl)-1,4-dihydropyrido[3,4-b]pyrazin-3(2H)-one] | 0.23 | 23.9
